In patent publication US20020137929A1, “1 - (3-heterocyclylphenyl) isothiourea, -isourea, -guanidine and -amidine herbicidal agents” (Intellectual Property Department, BASF Aktiengesellschaft, priority 1998, published 2002):

How the values were obtained:
[1] = tested on: ABUTH (Velvetleaf); assay: Postemergence herbicidal evaluation; assay type: in vivo, Abutilon theophrasti; details: postemergence
Summary of the method: (§1)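 Two-week-old seedlings sprayed with compound in 50/50 acetone/water plus 0.5% TWEEN 20, at about 0.0156 to 0.500 kg/ha, nozzle at 40 psi. Kept in greenhouse; rated visually 4-5 weeks after treatment on a 0-9 scale versus control, repeat tests averaged.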

[2] = tested on: AMBEL (Ragweed, Common); assay: Postemergence herbicidal evaluation; assay type: in vivo, Ambrosia artemisifolia; details: postemergence
Summary of the method: as §1

[3] = tested on: ECHCG (Barnyardgrass); assay: Postemergence herbicidal evaluation; assay type: in vivo, Echinochloa crus-galli; details: postemergence
Summary of the method: as §1

[4] = tested on: SETVI (Foxtail, Green); assay: Postemergence herbicidal evaluation; assay type: in vivo, Setaria viridis; details: postemergence
Summary of the method: as §1

[5] = tested on: GLXMAW (Soybean, Williams); assay: Postemergence herbicidal evaluation; assay type: in vivo, Glycine max, (L.) Merr. cv Williams; details: postemergence
Summary of the method: as §1

[6] = tested on: ORYSAT (Rice, Tebonnet); assay: Postemergence herbicidal evaluation; assay type: in vivo, Oryza sativa, (L.) Tebonnet; details: postemergence
Summary of the method: as §1

[7] = tested on: TRZAWR (Wheat, Winter, cv Riband); assay: Postemergence herbicidal evaluation; assay type: in vivo, Triticum aestivum; details: postemergence
Summary of the method: as §1

[8] = tested on: ABUTH (Velvetleaf); assay: Preemergence herbicidal evaluation; assay type: in vivo, Abutilon theophrasti; details: rated 4-5 weeks after treatment
Summary of the method: (§2)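 Scores use a 0–9 visual scale covering stand, vigor, malformation, size and chlorosis relative to controls, rated four to five weeks after treatment. Before emergence, soil-planted seeds were sprayed with compound in aqueous acetone at roughly 0.0156–0.500 kg/ha and held in the greenhouse.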

[9] = tested on: CASOB (Sicklepod); assay: Preemergence herbicidal evaluation; assay type: in vivo, Cassia obtusifolia; details: rated 4-5 weeks after treatment
Summary of the method: as §2

[10] = tested on: SETVI (Foxtail, Green); assay: Preemergence herbicidal evaluation; assay type: in vivo, Setaria viridis; details: rated 4-5 weeks after treatment
Summary of the method: as §2

[11] = tested on: SAGPY (Arrowhead (Pygmaea)); assay: Preemergence weed control under flooded paddy conditions; assay type: in vivo, Sagittaria pygmaea; details: rated 3-4 weeks after treatment
Summary of the method: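 First, seeds or propagules go into the top 0.5 cm of silt loam; next, water is held 1.5 to 3 cm over the soil; then compound (50/50 acetone/water) is pipetted into it at about 0.0313 to 0.500 kg/ha; finally plants are rated visually 0-9 after three to four weeks.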

[12] = tested on: CYPIR (Rice Flatsedge); assay: Postemergence weed control under flooded paddy conditions; assay type: in vivo, Cyperus iria; details: postemergence weeds, rated 3 to 4 weeks after treatment
Summary of the method: (§3)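 Flood-water application, about 0.0313–0.500 kg/ha a.i. in aqueous/acetone 50/50 v/v; water depth 1.5–3 cm throughout. Weeds 3–5 cm, rice 1.5–2.5 leaf. Greenhouse; 0–9 visual rating vs control at 3–4 wk.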

[13] = tested on: SAGPY (Arrowhead (Pygmaea)); assay: as above; assay type: in vivo, Sagittaria pygmaea; details: postemergence weeds, rated 3 to 4 weeks after treatment
Summary of the method: as §3

SMILES: COC(=O)[C@H](Cc1ccccc1)N1C(=O)CS/C1=N/c1cc(-n2c(=O)cc(C(F)(F)F)n(C)c2=O)c(F)cc1Cl [Compound 72, Methyl α-benzyl-2-{{2-chloro-5-[3,6-dihydro-3-methyl-2,6-dioxo-4-(trifluoromethyl)-1(2H)-pyrimidinyl]-4-fluorophenyl]imino}-4-oxo-3-thiazolidineacetate, L-]
- ABUTH herbicidal rating ([1]; rate 0.0158 kg/ha): 9.0
- ABUTH herbicidal rating ([1]; rate 0.0315 kg/ha): 9.0
- ABUTH herbicidal rating ([1]; rate 0.0630 kg/ha): 9.0
- AMBEL herbicidal rating ([2]; rate 0.0158 kg/ha): 5.0
- AMBEL herbicidal rating ([2]; rate 0.0315 kg/ha): 9.0
- AMBEL herbicidal rating ([2]; rate 0.0630 kg/ha): 6.0
- ECHCG herbicidal rating ([3]; rate 0.0158 kg/ha): 1.0
- ECHCG herbicidal rating ([3]; rate 0.0315 kg/ha): 3.0
- ECHCG herbicidal rating ([3]; rate 0.0630 kg/ha): 3.0
- SETVI herbicidal rating ([4]; rate 0.0158 kg/ha): 2.0
- SETVI herbicidal rating ([4]; rate 0.0315 kg/ha): 4.0
- SETVI herbicidal rating ([4]; rate 0.0630 kg/ha): 2.0
- GLXMAW herbicidal rating ([5]; rate 0.0158 kg/ha): 5.5
- GLXMAW herbicidal rating ([5]; rate 0.0315 kg/ha): 5.5
- GLXMAW herbicidal rating ([5]; rate 0.0630 kg/ha): 7.0
- ORYSAT herbicidal rating ([6]; rate 0.0158 kg/ha): 3.5
- ORYSAT herbicidal rating ([6]; rate 0.0315 kg/ha): 3.5
- ORYSAT herbicidal rating ([6]; rate 0.0630 kg/ha): 4.5
- TRZAWR herbicidal rating ([7]; rate 0.0158 kg/ha): 3.5
- TRZAWR herbicidal rating ([7]; rate 0.0315 kg/ha): 4.0
- TRZAWR herbicidal rating ([7]; rate 0.0630 kg/ha): 4.5
- Preemergence herbicidal rating ABUTH ([8]; rate 0.0156 kg/ha): 2.0
- Preemergence herbicidal rating ABUTH ([8]; rate 0.0313 kg/ha): 9.0
- Preemergence herbicidal rating ABUTH ([8]; rate 0.0625 kg/ha): 9.0
- Preemergence herbicidal rating ABUTH ([8]; rate 0.1250 kg/ha): 9.0
- Preemergence herbicidal rating ABUTH ([8]; rate 0.2500 kg/ha): 9.0
- Preemergence herbicidal rating CASOB ([9]; rate 0.0156 kg/ha): 0.0
- Preemergence herbicidal rating CASOB ([9]; rate 0.0313 kg/ha): 0.0
- Preemergence herbicidal rating CASOB ([9]; rate 0.0625 kg/ha): 0.0
- Preemergence herbicidal rating CASOB ([9]; rate 0.1250 kg/ha): 1.0
- Preemergence herbicidal rating CASOB ([9]; rate 0.2500 kg/ha): 1.0
- Preemergence herbicidal rating SETVI ([10]; rate 0.0156 kg/ha): 0.0
- Preemergence herbicidal rating SETVI ([10]; rate 0.0313 kg/ha): 0.0
- Preemergence herbicidal rating SETVI ([10]; rate 0.0625 kg/ha): 0.0
- Preemergence herbicidal rating SETVI ([10]; rate 0.1250 kg/ha): 9.0
- Preemergence herbicidal rating SETVI ([10]; rate 0.2500 kg/ha): 9.0
- SAGPY herbicidal effect rating ([11]; 0.0313 kg/ha): 4.0
- SAGPY herbicidal effect rating ([11]; 0.0625 kg/ha): 4.0
- SAGPY herbicidal effect rating ([11]; 0.1250 kg/ha): 4.0
- SAGPY herbicidal effect rating ([11]; 0.2500 kg/ha): 4.0
- Herbicidal rating CYPIR ([12]; Rate 0.0313 kg/ha): 6.0
- Herbicidal rating CYPIR ([12]; Rate 0.0625 kg/ha): 6.0
- Herbicidal rating CYPIR ([12]; Rate 0.1250 kg/ha): 7.0
- Herbicidal rating CYPIR ([12]; Rate 0.2500 kg/ha): 9.0
- Herbicidal rating SAGPY ([13]; Rate 0.0313 kg/ha): 4.0
- Herbicidal rating SAGPY ([13]; Rate 0.0625 kg/ha): 4.0
- Herbicidal rating SAGPY ([13]; Rate 0.1250 kg/ha): 4.0
- Herbicidal rating SAGPY ([13]; Rate 0.2500 kg/ha): 4.0

SMILES: Cn1c(C(F)(F)F)cc(=O)n(-c2cc(N=C3SCC(=O)N3C3CCOC3=O)c(Cl)cc2F)c1=O (centres unmarked) [Compound 73]
- ABUTH herbicidal rating ([1]; rate 0.0158 kg/ha): 9.0
- ABUTH herbicidal rating ([1]; rate 0.0315 kg/ha): 9.0
- ABUTH herbicidal rating ([1]; rate 0.0630 kg/ha): 9.0
- AMBEL herbicidal rating ([2]; rate 0.0158 kg/ha): 9.0
- AMBEL herbicidal rating ([2]; rate 0.0315 kg/ha): 9.0
- AMBEL herbicidal rating ([2]; rate 0.0630 kg/ha): 9.0
- ECHCG herbicidal rating ([3]; rate 0.0158 kg/ha): 2.0
- ECHCG herbicidal rating ([3]; rate 0.0315 kg/ha): 2.0
- ECHCG herbicidal rating ([3]; rate 0.0630 kg/ha): 3.0
- SETVI herbicidal rating ([4]; rate 0.0158 kg/ha): 1.0
- SETVI herbicidal rating ([4]; rate 0.0315 kg/ha): 2.0
- SETVI herbicidal rating ([4]; rate 0.0630 kg/ha): 7.0
- GLXMAW herbicidal rating ([5]; rate 0.0158 kg/ha): 6.0
- GLXMAW herbicidal rating ([5]; rate 0.0315 kg/ha): 5.5
- GLXMAW herbicidal rating ([5]; rate 0.0630 kg/ha): 7.5
- ORYSAT herbicidal rating ([6]; rate 0.0158 kg/ha): 2.5
- ORYSAT herbicidal rating ([6]; rate 0.0315 kg/ha): 3.0
- ORYSAT herbicidal rating ([6]; rate 0.0630 kg/ha): 4.0
- TRZAWR herbicidal rating ([7]; rate 0.0158 kg/ha): 3.5
- TRZAWR herbicidal rating ([7]; rate 0.0315 kg/ha): 4.0
- TRZAWR herbicidal rating ([7]; rate 0.0630 kg/ha): 5.0
- Preemergence herbicidal rating ABUTH ([8]; rate 0.0156 kg/ha): 9.0
- Preemergence herbicidal rating ABUTH ([8]; rate 0.0313 kg/ha): 9.0
- Preemergence herbicidal rating ABUTH ([8]; rate 0.0625 kg/ha): 9.0
- Preemergence herbicidal rating ABUTH ([8]; rate 0.1250 kg/ha): 9.0
- Preemergence herbicidal rating ABUTH ([8]; rate 0.2500 kg/ha): 9.0
- Preemergence herbicidal rating CASOB ([9]; rate 0.0313 kg/ha): 0.0
- Preemergence herbicidal rating CASOB ([9]; rate 0.0625 kg/ha): 0.0
- Preemergence herbicidal rating CASOB ([9]; rate 0.1250 kg/ha): 1.0
- Preemergence herbicidal rating CASOB ([9]; rate 0.2500 kg/ha): 2.0
- Preemergence herbicidal rating SETVI ([10]; rate 0.0156 kg/ha): 0.0
- Preemergence herbicidal rating SETVI ([10]; rate 0.0313 kg/ha): 1.0
- Preemergence herbicidal rating SETVI ([10]; rate 0.0625 kg/ha): 0.0
- Preemergence herbicidal rating SETVI ([10]; rate 0.1250 kg/ha): 9.0
- Preemergence herbicidal rating SETVI ([10]; rate 0.2500 kg/ha): 9.0
- SAGPY herbicidal effect rating ([11]; 0.1250 kg/ha): 3.0
- SAGPY herbicidal effect rating ([11]; 0.2500 kg/ha): 4.0
- Herbicidal rating CYPIR ([12]; Rate 0.1250 kg/ha): 0.0
- Herbicidal rating CYPIR ([12]; Rate 0.2500 kg/ha): 6.0
- Herbicidal rating SAGPY ([13]; Rate 0.1250 kg/ha): 3.0
- Herbicidal rating SAGPY ([13]; Rate 0.2500 kg/ha): 4.0
